“Also recorded” adds a separate entry of the source.
Legend:
[1] = system: BDL rats; experiment: Direct portal pressure measurement in bile duct ligated (BDL) rats; assay type: in vivo, rat
Description: (§1) These experiments utilised an established animal model of cirrhosis, the bile duct ligated (BDL) rat. BDL rats may be generated by methods known in the art. For example, male Sprague-Dawley rats (200-250 g) may be used for this procedure. Following anaesthetisation, a mid-line laparotamy may be performed, the bile duct exposed, triply ligated with 4.0 silk suture, and severed between the second and third ligature. The wound is then closed in layers with absorbable suture, and the animal allowed to recover in a quiet room before being returned to the animal storage facility.
Three groups of rats were used in these experiments, BDL rats treated with vehicle, BDL rats treated with the anti-TNF monoclonal antibody infliximab, and sham treated rats.
Four weeks after BDL or sham surgery in Sprague-Dawley rats (n=14), BDL rats were gavaged with 5 mg/kg of the FXR agonist INT-747 (6-ethyl chenodeoxycholic acid, Intercept Pharmaceuticals Inc.) in vehicle (corn oil) for 5 days or with vehicle alone.
(§2) After 5 days of treatment rats underwent direct portal pressure assessment and were then sacrificed, and plasma and liver tissue collected for analysis. eNOS activity was determined radiometrically by the conversion of labelled radioactive arginine to citrulline. Protein expression for eNOS, iNOS, DDAH-1, and DDAH-2 were measured by standard Western Blotting techniques. Liver biopsies were evaluated for histopathology with H+E, Van Giesen and reticulin stains.
This method, termed ‘hydrodynamic gene therapy’, was used to determine the effect of transduction of DDAH-1 in BDL rats on portal pressure.
A plasmid containing human DDAH-1 cDNA was injected via a branch of the jugular vein into BDL or sham rodents produced as above. A control plasmid containing GFP was used as a control for the intervention in BDL animals. The animals underwent direct portal pressure measurement at 48 hours post intervention and plasma and tissue was collected for analysis of liver DDAH-1 mRNA (rtPCR) and protein expression (western blotting), as well as routine histology and biochemistry.

[2] = system: patients with acute alcoholic hepatitis; settings: systemic infliximab in association with prednisolone; cited from earlier work
[3] = system: ADMA; experiment: Liver tissue ADMA concentration in BDL rats; assay type: in vivo, rat; settings: BDL rats + infliximab vs BDL vehicle
Description: as §1
ADMA, SDMA and arginine were measured using fragmentation specific stable isotope dilution electrospray tandem mass spectrometry. In brief, samples de-proteinized with deuterated ADMA, SDMA and arginine, were chromatographed (acetonitrile:water, 1:1, with 0.025% formic acid) on a Teicoplanin guard column 10 mm×2.1 mm ID (Chirobiotic T, ASTEC Ltd, Congleton, UK), and analysed using a SCIEX API4000 (Applied Biosystems, Warrington, UK) in positive ion multiple reaction monitoring mode.

[4] = system: DDAH-I; experiment: Hepatic DDAH-I protein expression in BDL rats; assay type: in vivo, rat; settings: BDL rats + infliximab vs BDL vehicle and sham
Description: as §1
Extracts containing equal amounts of protein were denatured and separated on 4-12% NuPAGE Bis-Tris Gels and blotted on to PVDF membranes (Invitrogen, UK). […] The bands were visualized using an enhanced ECL detection kit and quantified by densitometry. Loading accuracy was evaluated via membrane rehybridization with antibodies against mouse and rabbit anti-α tubulin (1:1000; upstate and Cell Signaling Technology, respectively).
After 5 days of treatment rats underwent direct portal pressure assessment and were then sacrificed, and plasma and liver tissue collected for analysis. eNOS activity was determined radiometrically by the conversion of labelled radioactive arginine to citrulline. Protein expression for eNOS, iNOS, DDAH-1, and DDAH-2 were measured by standard Western Blotting techniques. […]

[5] = system: eNOS; experiment: Hepatic eNOS activity (conversion of labelled arginine to 14C-citrulline) in BDL rats; assay type: in vivo, rat; settings: BDL rats + infliximab vs BDL vehicle and sham
Protocol: FIG. 1 reports on the 14C-citrulline counts per minute per milligram of protein. This is a measure of eNOS activity. Experiments were carried out in bile-duct ligated (BDL) or sham treated rats. The bile duct ligated rats were treated with either infliximab (BDL+infliximab) or a vehicle (BDL).
as §1, §2

| Molecule | reduction in portal pressure ([1]; BDL rats, INT-747 5 mg/kg gavage for 5 days, compared to BDL+vehicle, p<0.01) | severe infections [2] | portal pressure ([1]; BDL cirrhotic rats after infliximab, BDL 14±0.7, sham 5.5±0.3 mmHg) | reduction in portal pressure ([1]; BDL rats + infliximab compared with BDL rats (vehicle / iso-volumetric saline)) | reduction in portal pressure ([1]; BDL rats + infliximab compared with BDL rats (vehicle / iso-volumetric saline), listed as Infliximab) | ADMA levels in liver tissue [3] | DDAH-I expression in liver [4] | DDAH-I expression in liver ([4]; listed as Infliximab) | eNOS activity (14C-citrulline counts per minute per milligram of protein) [5] |
| --- | --- | --- | --- | --- | --- | --- | --- | --- | --- |
| CC[C@H]1[C@@H](O)[C@@H]2[C@H](CC[C@]3(C)[C@@H]([C@H](C)CCC(=O)O)CC[C@@H]23)[C@@]2(C)CC[C@@H](O)C[C@@H]12 [INT-747, 6-ethyl chenodeoxycholic acid] | 30% |  |  |  |  |  |  |  |  |
| infliximab: anti-TNF monoclonal antibody infliximab |  | high level of severe infections | 9.5±0.6 mmHg | greater than 33% | more than 30% | substantially reduced; also recorded: reduction | restored towards sham levels; also recorded: significant increase | restored towards sham levels | restores eNOS activity towards similar levels to those seen in the sham animals; also recorded: Increased |

Source: patent US20120237503A1, “Screening Method and Therapy with Agonists of DDAH I” (UCL BUSINESS PLC, priority 2009, published 2012)
